Test results from PubChem BioAssay AID248 (DTP/NCI, 2004).
“And” between values parts separate entries of the source, which are not always exact repeats. Equal values may be shown once. Inconclusive results and toxic doses are left out. Rule as the data show it: active = T/C of 150% or more; inactive = T/C below 125%.

Test system: L1210 leukemia ip in BDF1 mice, survival T/C
Experiment: NCI In Vivo Anticancer Drug Screen. Data for tumor model L1210 Leukemia (intraperitoneal) in B6D2F1 (BDF1) mice
Conditions: endpoint: mean survival time, higher = longer survival
Procedure, shortened: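 Antitumor effect is assessed in tumor-bearing animals. Survival in the compound arm is compared with a vehicle-dosed control arm and expressed as their quotient.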

[1] = dose: 100.0 mg/kg/injection, schedule: Q01DX009 (ip), vehicle: Klucel (hydroxypropylcellulose) (HPC)
[2] = dose: 100.0 mg/kg/injection, schedule: Q04DX003 (ip), vehicle: Klucel (hydroxypropylcellulose) (HPC)
[3] = dose: 200.0 mg/kg/injection, schedule: Q04DX003 (ip), vehicle: Klucel (hydroxypropylcellulose) (HPC)
[4] = dose: 400.0 mg/kg/injection, schedule: Q04DX003 (ip), vehicle: Klucel (hydroxypropylcellulose) (HPC)
[5] = dose: 50.0 mg/kg/injection, schedule: Q04DX003 (ip), vehicle: saline with Tween-80
[6] = dose: 100.0 mg/kg/injection, schedule: Q04DX003 (ip), vehicle: saline with Tween-80
[7] = dose: 200.0 mg/kg/injection, schedule: Q04DX003 (ip), vehicle: saline with Tween-80
[8] = dose: 200.0 mg/kg/injection, schedule: Q01DX009 (ip), vehicle: Klucel (hydroxypropylcellulose) (HPC)
[9] = dose: 100.0 mg/kg/injection, schedule: Q01DX001 (ip), vehicle: saline
[10] = dose: 200.0 mg/kg/injection, schedule: Q01DX001 (ip), vehicle: saline
[11] = dose: 100.0 mg/kg/injection, schedule: Q04DX003 (ip), vehicle: saline
[12] = dose: 400.0 mg/kg/injection, schedule: Q04DX003 (ip), vehicle: saline
[13] = dose: 50.0 mg/kg/injection, schedule: Q01DX001 (ip), vehicle: saline
[14] = dose: 100.0 mg/kg/injection, schedule: Q01DX001 (ip), vehicle: other
[15] = dose: 200.0 mg/kg/injection, schedule: Q01DX001 (ip), vehicle: other
[16] = dose: 400.0 mg/kg/injection, schedule: Q01DX001 (ip), vehicle: other
[17] = dose: 100.0 mg/kg/injection, schedule: Q01DX001 (ip), vehicle: saline with Tween-80
[18] = dose: 200.0 mg/kg/injection, schedule: Q01DX001 (ip), vehicle: saline with Tween-80

Measured: T/C

O=C(/C=C/c1ccccc1)NC(=S)Nc1ncccn1
inactive: dose: 100.0 mg/kg/injection, schedule: Q01DX009 (ip), vehicle: carboxymethylcellulose (CMC) 93 % of control and 96 % of control | dose: 100.0 mg/kg/injection, schedule: Q04DX002 (ip), vehicle: carboxymethylcellulose (CMC) 96 % of control and 104 % of control | dose: 100.0 mg/kg/injection, schedule: Q04DX003 (ip), vehicle: carboxymethylcellulose (CMC) 94 % of control | dose: 200.0 mg/kg/injection, schedule: Q01DX009 (ip), vehicle: carboxymethylcellulose (CMC) 92 % of control and 96 % of control | dose: 200.0 mg/kg/injection, schedule: Q04DX002 (ip), vehicle: carboxymethylcellulose (CMC) 96 % of control and 98 % of control | dose: 200.0 mg/kg/injection, schedule: Q04DX003 (ip), vehicle: carboxymethylcellulose (CMC) 91 % of control | dose: 400.0 mg/kg/injection, schedule: Q01DX009 (ip), vehicle: carboxymethylcellulose (CMC) 96 % of control and 104 % of control | dose: 400.0 mg/kg/injection, schedule: Q04DX002 (ip), vehicle: carboxymethylcellulose (CMC) 96 % of control and 91 % of control

CCSCCOP(=O)(N(C)C)N(C)C
inactive: dose: 25.0 mg/kg/injection, schedule: Q04DX002 (ip), vehicle: Klucel (hydroxypropylcellulose) (HPC) 96 % of control | dose: 50.0 mg/kg/injection, schedule: Q04DX002 (ip), vehicle: Klucel (hydroxypropylcellulose) (HPC) 96 % of control | dose: 100.0 mg/kg/injection, schedule: Q04DX002 (ip), vehicle: Klucel (hydroxypropylcellulose) (HPC) 93 % of control and 98 % of control

CC(=O)CC(=O)Nc1ccc2ccccc2c1
inactive: [1] 98 % of control | [2] 92 % of control | [3] 97 % of control | [4] 92 % of control

CCC1(CC)C(=O)C=CNC1=O
inactive: [5] 95 % of control | [6] 107 % of control | [7] 102 % of control

CCCCC(CN)c1cccc2ccccc12 (configuration not stated)
inactive: dose: 25.0 mg/kg/injection, schedule: Q04DX002 (ip), vehicle: saline with Tween-80 95 % of control | dose: 50.0 mg/kg/injection, schedule: Q04DX002 (ip), vehicle: saline with Tween-80 92 % of control

NNC(=O)Cc1csc2ccccc12
inactive: dose: 55.5 mg/kg/injection, schedule: Q01DX Z (ip), vehicle: carboxymethylcellulose (CMC) 102 % of control | dose: 83.3 mg/kg/injection, schedule: Q01DX Z (ip), vehicle: carboxymethylcellulose (CMC) 114 % of control | dose: 125.0 mg/kg/injection, schedule: Q01DX Z (ip), vehicle: carboxymethylcellulose (CMC) 119 % of control

O=[N+]([O-])c1cccc(C=Nc2cccc(C(F)(F)F)c2)c1
inactive: [1] 109 % of control | [2] 110 % of control | [8] 98 % of control | [3] 110 % of control | [4] 101 % of control

CCC/C=C(\C)CCCC
inactive: [9] 97 % of control | [10] 99 % of control | dose: 400.0 mg/kg/injection, schedule: Q01DX001 (ip), vehicle: saline 95 % of control

C=C1CC(C)(c2ccc(S(=O)(=O)N3CCCC3)cc2)OC1=O (configuration not stated)
inactive: dose: 18.0 mg/kg/injection, schedule: Q01DX009 (ip), vehicle: Klucel (hydroxypropylcellulose) (HPC) 108 % of control | dose: 37.5 mg/kg/injection, schedule: Q01DX009 (ip), vehicle: Klucel (hydroxypropylcellulose) (HPC) 95 % of control | dose: 75.0 mg/kg/injection, schedule: Q01DX009 (ip), vehicle: Klucel (hydroxypropylcellulose) (HPC) 104 % of control | dose: 87.5 mg/kg/injection, schedule: Q01DX009 (ip), vehicle: Klucel (hydroxypropylcellulose) (HPC) 104 % of control

Cc1nc(N)[nH]c(=O)c1CCC(=O)O
inactive: [11] 102 % of control | [12] 107 % of control

Cc1ccc(S(=O)(=O)OCCOc2ccc(C(C)(C)CC(C)(C)C)cc2)cc1
inactive: [1] 100 % of control | [8] 101 % of control | dose: 400.0 mg/kg/injection, schedule: Q01DX009 (ip), vehicle: Klucel (hydroxypropylcellulose) (HPC) 100 % of control

NC(=O)NCCc1ccccc1
inactive: [2] 102 % of control | [3] 97 % of control | [4] 102 % of control

Cc1ccc(S(=O)(=O)/N=S(\CCCl)CCc2ccccc2)cc1 (configuration not stated)
inactive: [2] 97 % of control | [3] 97 % of control | [4] 90 % of control

CCN(CC)c1ccc(/C=N/Nc2nnc(N/N=C/c3ccc(N(CC)CC)cc3)c3ccccc23)cc1
inactive: [13] 94 % of control | [9] 92 % of control | [10] 105 % of control

CCCCc1cccc(N2C(N)=NC(N)=NC2(C)C)c1
inactive: dose: 12.5 mg/kg/injection, schedule: Q01DX001 (ip), vehicle: saline 103 % of control | [13] 89 % of control

CCCCC(CCCC)NCCOC(=O)c1ccc(N)cc1
inactive: dose: 75.0 mg/kg/injection, schedule: Q01DX001 (ip), vehicle: other 102 % of control

O=[N+]([O-])c1ccc(NC2CCCCC2)c2c1no[n+]2[O-]
inactive: [5] 100 % of control | [6] 100 % of control | [7] 118 % of control

CCC(=O)Nc1ccccc1OC
inactive: [2] 100 % of control | [3] 115 % of control | [4] 102 % of control

CNC(=S)N/N=C/c1cc(Cl)cc(Cl)c1
inactive: [14] 102 % of control | [15] 102 % of control | [16] 98 % of control

NC1=N/C(=C/[N+](=O)[O-])c2ccccc21
inactive: dose: 6.25 mg/kg/injection, schedule: Q04DX003 (ip), vehicle: saline 93 % of control | dose: 12.5 mg/kg/injection, schedule: Q04DX003 (ip), vehicle: saline 96 % of control

COC(=O)c1ccc(SCCCN2CCOCC2)cc1
inactive: dose: 100.0 mg/kg/injection, schedule: Q01DX009 (ip), vehicle: saline 97 % of control | [11] 109 % of control | dose: 200.0 mg/kg/injection, schedule: Q01DX009 (ip), vehicle: saline 96 % of control | dose: 200.0 mg/kg/injection, schedule: Q04DX003 (ip), vehicle: saline 96 % of control | dose: 400.0 mg/kg/injection, schedule: Q01DX009 (ip), vehicle: saline 102 % of control | [12] 100 % of control

CC(C)C(N=Cc1cc(Cl)ccc1O)C(=O)O (configuration not stated)
inactive: dose: 100.0 mg/kg/injection, schedule: Q01DX001 (ip), vehicle: steriod suspending solution 105 % of control | dose: 200.0 mg/kg/injection, schedule: Q01DX001 (ip), vehicle: steriod suspending solution 94 % of control | dose: 400.0 mg/kg/injection, schedule: Q01DX001 (ip), vehicle: steriod suspending solution 104 % of control

CCCCCCCCCC(C)CCCCC (configuration not stated)
inactive: dose: 25.0 mg/kg/injection, schedule: Q01DX001 (ip), vehicle: saline with Tween-80 93 % of control | dose: 50.0 mg/kg/injection, schedule: Q01DX001 (ip), vehicle: saline with Tween-80 98 % of control | [17] 95 % of control and 97 % of control | [18] 98 % of control

O=C1C=CC(=O)N1c1ccc(F)cc1
inactive: dose: 25.0 mg/kg/injection, schedule: Q04DX003 (ip), vehicle: saline with Tween-80 108 % of control

CCCCCCCC[Si](c1ccc(C)cc1)(c1ccc(C)cc1)c1ccc(C)cc1
inactive: [14] 97 % of control | [15] 95 % of control | [16] 97 % of control

O=C(NC(=S)Nc1cccc2ccccc12)c1ccccc1F
inactive: dose: 100.0 mg/kg/injection, schedule: Q04DX002 (ip), vehicle: saline 102 % of control | dose: 200.0 mg/kg/injection, schedule: Q04DX002 (ip), vehicle: saline 88 % of control | dose: 400.0 mg/kg/injection, schedule: Q04DX002 (ip), vehicle: saline 102 % of control

CCOP(=S)(N/N=C1/CCCC(C)C1)OCC (configuration not stated)
inactive: dose: 100.0 mg/kg/injection, schedule: Q01DX001 (ip), vehicle: carboxymethylcellulose (CMC) 93 % of control | dose: 200.0 mg/kg/injection, schedule: Q01DX001 (ip), vehicle: carboxymethylcellulose (CMC) 93 % of control | dose: 400.0 mg/kg/injection, schedule: Q01DX001 (ip), vehicle: carboxymethylcellulose (CMC) 97 % of control

O=C(O)CC1(CC(=O)O)C(=O)N(c2ccccc2)c2ccccc21
inactive: [17] 95 % of control | [18] 90 % of control | dose: 400.0 mg/kg/injection, schedule: Q01DX001 (ip), vehicle: saline with Tween-80 97 % of control

CN(C)C(=S)SCC(=O)NC(CO)C(=O)O (configuration not stated)
inactive: dose: 100.0 mg/kg/injection, schedule: Q04DX002 (ip), vehicle: saline with Tween-80 100 % of control | dose: 200.0 mg/kg/injection, schedule: Q04DX002 (ip), vehicle: saline with Tween-80 107 % of control | dose: 400.0 mg/kg/injection, schedule: Q04DX002 (ip), vehicle: saline with Tween-80 111 % of control
